Experimental data taken from patent US20240358683A1, “COMPOSITION FOR PREVENTING OR TREATING NEURODEGENERATIVE DISEASE COMPRISING COMPOUND INDUCING EXPRESSION OF ANTI-AGING GENE KLOTHO” (KLOTHO SCIENCES, priority 2021, published 2024).

Legend:
[1] = test system: klotho (KL) gene; test: Quantitative evaluation of klotho (KL) gene expression level using real-time PCR in RPTEC cells; type: cell-based, human; conditions: RPTEC cells treated for 6 hours; vs Comparative Example 1; FIG. 4
Description: For RNA extraction from RPTEC cells, which are epithelial cells of the proximal tubule of the human kidneys, treated with the compounds of Comparative Example 1 and Examples 1 and 2 for 6 hours, an RNeasy kit from Qiagen Inc. was used. The results of preparing cDNA from extracted RNA using a Superscript II kit from Thermo Fisher Scientific, Inc. and performing the quantitative evaluation using Taqman Gene Expression assays from Applied Biosystems as a klotho (KL) gene-specific kit are illustrated in FIG. 4.

[2] = test system: human klotho gene; test: Luciferase expression experiment, reporter gene pHKP-luc (promoter up to -2.1 kb upstream of the human klotho gene) in RPTECs; type: cell-based
Description: (§1) In order to evaluate whether the klotho gene was expressed by the evaluation of luciferase activity, human renal proximal tubule epithelial cells (RPTECs) (ATCC CRL-4031), which are epithelial cells of the proximal tubule of the human kidneys, were purchased from Lonza, USA and used.
(§2) For culturing, a Renal Epithelial Growth Medium (REGM™) Bullet kit, also manufactured by the same Lonza company, was used, and the cells were cultured under conditions of 37° C. and 5% CO2. As a plasmid for luciferase expression, a plasmid in which the promoter site of a human KL (klotho) gene was disposed to regulate the expression of a firefly luciferase gene was used.
(§3) The plasmid was incorporated into cells using an X-treme GENE transfection reagent from Roche. The activity of luciferase expressed in cells was measured using a Dual-Luciferase reporter assay system manufactured by Promega. After the cultured cells were treated with each compound at an indicated concentration for 24 hours, the activity of luciferase was measured. It is indirectly shown that the expression of the klotho gene may be increased when the activity of luciferase is high.
The results of confirming the expression of a reporter gene by treating RPTECs, which are epithelial cells of the proximal tubule of the human kidneys, with Examples 1 to 6 at concentrations of 0.5, 1 and 5 μM and Comparative Example 1 at a concentration of 5 μM and using a reporter gene (pHKP-luc) including a promoter included up to −2.1 kb upstream of the human klotho gene are illustrated in FIGS. 2 and 3.

[3] = test system: human kidney-2 (HK2) cells; test: Toxicity test, EZ-Cytox kit; type: cell-based; conditions: 12.5 μM or 25 μM, 24 hours, FIG. 6
Description: Cultured human kidney-2 (HK2) cells were treated with Comparative Example 1, Example 2 and Examples 9 to 10 at a concentration of 25 μM or 12.5 μM, and after 24 hours, cytotoxicity was measured using an EZ-Cytox kit.

[4] = test system: 5×FAD mice; test: Novel object recognition test (NOR) in 5×FAD mice; type: in vivo; conditions: 10 mg/kg p.o. daily, compared to vehicle, FIG. 11
Text: (§4) In this experiment, 5×FAD mice aged 4 months or 6 months were used. 5×FAD mice are Alzheimer's mice genetically modified to overproduce beta amyloid (Aβ, β amyloid) and were provided by the KIST Research Animal Resource Center, which maintains and sells them. Normal control (WT) mice, which are not genetically modified to overproduce β-amyloid (Aβ), were provided by the KIST Research Animal Resource Center. The animals were acclimatized for 1 week before the experiments. Mice were kept on an ad libitum diet in an animal room maintained at 22±2° C. and 40-60% humidity, and the light and dark cycles were controlled at 12-hour intervals. […]
(§5) Animal model mice and normal control mice received vehicle (5% DMSO+65% PEG400+30% Saline) or vehicle with KS1 (Example 10) dissolved in it orally (p.o.) at a concentration of 10 mg/kg daily for 4 or 12 weeks. […] The body weight was measured weekly during the treatment period, and after the end of the treatment, the cognitive function was tested and sacrificed, and the organs were harvested to confirm the changes through biochemical methods.
The novel object recognition test is a modification of the existing method and consists of an adaptation period, an exploration period, and a novel object recognition period. […] The next day, one of the objects was replaced with a new object and the animal's movement was measured for 10 minutes. […]

[5] = test system: phospho-Tau; test: phospho-Tau immunohistochemistry of brain tissue sections, 5×FAD cognitive dysfunction animal model; type: in vivo; conditions: 5×FAD mice, 10 mg/kg p.o. daily, FIG. 9
Text: (§6) In this experiment, 5×FAD mice aged 4 months or 6 months were used. 5×FAD mice are Alzheimer's mice genetically modified to overproduce beta amyloid (Aβ, β amyloid) and were provided by the KIST Research Animal Resource Center, which maintains and sells them. Normal control (WT) mice, which are not genetically modified to overproduce β-amyloid (Aβ), were provided by the KIST Research Animal Resource Center. The animals were acclimatized for 1 week before the experiments. Mice were kept on an ad libitum diet in an animal room maintained at 22±2° C. and 40-60% humidity, and the light and dark cycles were controlled at 12-hour intervals. All animal experiments were performed in accordance with the animal care and use regulations of the Institutional Animal Care and Use Committee of the Korea Advanced Institute of Science and Technology (KIST).
(§7) Animal model mice and normal control mice received vehicle (5% DMSO+65% PEG400+30% Saline) or vehicle with KS1 (Example 10) dissolved in it orally (p.o.) at a concentration of 10 mg/kg daily for 4 or 12 weeks. Three mice were used per experimental group. The body weight was measured weekly during the treatment period, and after the end of the treatment, the cognitive function was tested and sacrificed, and the organs were harvested to confirm the changes through biochemical methods.
(§8) All data were expressed as mean (S.E.M), and differences between groups were determined using one-way ANOVA and Tukey's multiple comparisons test. When it was determined that there was a statistical difference, p<0.05 *, p<0.01 **, p<0.001 *** were indicated.
(§9) The fluorescence levels of phospho-Tau measured in each region (HPC: hippocampus; CTX: neocortex) of brain tissue sections isolated from control (CTL) and KS1 1-month and 3-month treatment groups of 5×FAD cognitive dysfunction animal model and normal control animal model were investigated by Immunohistochemistry.

[6] = test system: HT22 cells; test: Neuronal inflammation inhibition, LPS-induced cytotoxicity (Cyto X cell viability assay); type: cell-based, mouse; conditions: 2.5 μM, LPS 1 μg/mL 24 hours, FIG. 8
Description: (§10) HT22 cells, neuronal cells derived from mouse hippocampus, were cultured in DMEM culture medium supplemented with 10% FBS. Cell cultures were incubated in a 37° C. incubator at 5% CO2, and when the cells grew to saturate the surface of the culture dish by 80%, they were treated with 0.05% trypsin and transferred to new culture dishes for passage. The compound was added to the medium at each passage to maintain a final concentration of 2.5 μM. Cells with only DMSO as solvent were used as a negative control, and cells from three passages (#5) were used as a non-aging control. All senescent cells were cultured in 20 passages (#25).
Cells were seeded at 10,000 cells in 160 μl of medium into each well of a 96-well plate and incubated in a 37° C. incubator at 5% CO^2 for 24 h. The compounds were added to the culture medium to a final concentration of 2.5 μM. After incubation, LPS (lipopolysaccharide) from Cell application was added at a concentration of 1 μg/mL and incubated for another 24 hours. The Cyto X cell viability assay kit from the same company was then added 20 μl to each well and incubated for 1 to 4 hours. The color change was then measured at 450 nm.

[7] = test system: HT22 cells; test: Neuronal senescence inhibition, senescence β-galactosidase staining; type: cell-based, mouse; conditions: FIG. 7
Description: as §10
To check the degree of senescence of the cells, “Senescence β-galactosidase staining kit” from Cell Signaling Technology was used. The staining solution was added to the cells on the day of the experiment and the stained cells were checked 8 hours later. The number of stained cells was determined and expressed as a percentage of the total number of cells observed under a 200× microscope, and the number of stained cells in three different locations per sample was counted and averaged. As the expression of β-galactosidase enzyme increases as the aging of cells progresses, stained cells can be judged as more aged cells than unstained cells.

[8] = test system: klotho (KL) gene; test: Quantitative evaluation of klotho (KL) gene expression level using general PCR in RPTEC cells; type: cell-based, human; conditions: 2.5 μM, 6 hours, FIG. 5
Description: After RPTEC cells, which are epithelial cells of the proximal tubule of the human kidneys, were each treated with the compounds of Examples 7 to 10 at 2.5 μM for 6 hours, RNA was extracted from the cells, and cDNA was prepared from the extracted RNA using a Superscript II kit from Thermo Fisher Scientific, Inc., and then general PCR was performed.
Information on the primers used in the experiment is as follows. • KL-F […] (SEQ ID NO: 1) • KL-R […] (SEQ ID NO: 2) • GAPDH-F […] (SEQ ID NO: 3) • GAPDH-R […] (SEQ ID NO: 4)
The DNA amplified by PCR was confirmed by staining with ethidium bromide after electrophoresis on an agarose gel, and the amounts of DNA in the band were quantitatively compared using the SPEedyQuant program, and are illustrated in FIG. 5.

[9] = test system: 5×FAD mice; test: Passive avoidance experiment in 5×FAD mice; type: in vivo; conditions: 10 mg/kg p.o. daily for 4 weeks, compared to normal mice, FIG. 12
Text: as §4
as §5, with “methods. […]” for “methods.”
as §8

[10] = test system: NeuN; test: NeuN immunohistochemistry of brain tissue sections, 5×FAD cognitive dysfunction animal model; type: in vivo; conditions: 5×FAD mice, 10 mg/kg p.o. daily, FIG. 10
Text: as §6, §7, §8
as §9, with “level” for “levels”, “NeuN” for “phospho-Tau”, “(CTX: neocortex, CA: […], DG: dentate gyrus)” for “(HPC: hippocampus; CTX: neocortex)”, “was” for “were”

[11] = test system: human klotho gene; test: Luciferase expression experiment, human klotho promoter reporter (1.7 kbp / 240 bp) in RPTEC cells; type: cell-based; conditions: 5 μM, 24 hours, compared among Comparative Examples 1 to 4, FIG. 1
Description: as §1, §2
as §3, with “high. […]” for “high.”

[12] = RPTECs, Examples at 0.5, 1 and 5 μM vs Comparative Example 1 at 5 μM, FIG. 2

## Cc1ccc2oc(Nc3ccc(Cl)c(Cl)c3)nc2c1 [Example 2]
[1]
  klotho (KL) gene mRNA expression level, real-time PCR: level similar to that of Comparative Example 1
[2]; RPTEC cells, 5 μM, vs Comparative Example 1, FIG. 3
  expression of the reporter gene (pHKP-luc): level similar to that of Comparative Example 1
[2]; [12]
  expression of the reporter gene (pHKP-luc): level similar to that of Comparative Example 1

## Fc1ccc(Nc2nc3ccccc3o2)cc1F [Example 10, N-(3,4-difluorophenyl)benzo[d]oxazol-2-amine]
[3]
  cytotoxicity: the least toxicity
  improvement of toxicity compared to Comparative Example 1: ≥ 20%
[4]
  object detection ability (NOR): statistically significant increase in object detection ability
[5]; 1-month and 3-month treatment
  expression of phospho-Tau protein, hippocampus (HPC) region: reduced expression of the proteins was seen in only the 3-month treated mice
  expression of phospho-Tau protein, primary somatosensory cortex (CTX) region: reduced expression of the proteins was seen in both 1- and 3-month treated mice
[5]; compared to vehicle
  expression of phospho-Tau protein: reduced to a statistically significant level
[6]; HT22 cells cultured for 5 passages, DMSO control 50%
  percentage of cells killed by LPS treatment: 45%
[6]; HT22 cells cultured for 20 passages, DMSO control about 80%
  percentage of cells killed by LPS treatment: 60%
[7]; HT22 cells cultured for 20 passages, 2.5 μM in the medium, DMSO control about 50%
  β-galactosidase stained cells as a percentage of the total number of cells: 40%
[7]; HT22 cells, 20 passages, 2.5 μM
  decrease in the degree of senescence compared to cells grown in medium containing DMSO: 20%
[8]
  expression level of the klotho (KL) gene relative to Comparative Example 1: about 10 times
[9]
  spatial learning and memory performance, passive avoidance test: maintained a similar level of performance to normal mice
[10]; compared to vehicle
  expression of NeuN neuromarker protein: increased to a statistically significant level
[10]
  NeuN, Cornu Ammonis (CA): an increase in NeuN was confirmed
  NeuN, dentate gyrus (DG): no significant increase
  NeuN, primary somatosensory cortex (CTX): no significant increase

## O=C(Nc1nc2ccccc2o1)c1ccc([N+](=O)[O-])cc1Cl [Example 1, N-(benzo[d]oxazol-2-yl)-2-chloro-4-nitrobenzamide]
[2]; [12]
  expression of the reporter gene (pHKP-luc): level similar to that of Comparative Example 1

## O=C(Nc1ccccc1Cl)c1c[nH]c2ccccc12 [Comparative Example 1, N-(2-chlorophenyl)-1H-indole-3-carboxamide]
[11]
  luciferase activity: the highest
